In ChEMBL document CHEMBL1127089, “Non-nucleoside inhibitors of HIV-1 reverse transcriptase: molecular modeling and X-ray structure investigations” (J Med Chem, 1993):

Target: Human immunodeficiency virus type 1 reverse transcriptase (Human immunodeficiency virus 1, UniProt Q72547)
Test: In vitro for inhibitory activity against HIV-1 Reverse Transcriptase

Row | Compound | IC50 [nM]
1 | Cc1cccc(C23SCCN2C(=O)c2ccccc23)c1 (stereo unspecified) | 30
2 | O=C1c2ccccc2[C@@]23CC=CCC12c1ccccc1C3=O (stereo partly specified) | 8700
3 | O=C1c2ccccc2C2(c3ccccc3)SCCN12 (stereo unspecified) | 280
4 | O=C1c2ccccc2C2(c3cccc4ccccc34)SCCN12 (stereo unspecified) | 150
5 | CC(C)=CCN1Cc2cccc3[nH]c(=S)n(c23)C[C@@H]1C | 160
6 | O=C1c2ccccc2[C@H]2SCCN1c1ccccc12 | 830
